# According to US6617357B2, “Compounds and their use as PDE inhibitors” (SmithKline Beecham Corporation, priority 2001, dated 2003):
row,melting point,SMILES
1,130 to 132 °C,"COc1cc(C)c(S(=O)(=O)N(C)C)cc1[N+](=O)[O-] [Example 3, 4-Methoxy-2-methyl-5-nitro(N,N-dimethyl)benzenesulfonamide]"
2,113 °C,"Cc1cc(C)c(S(=O)(=O)N(C)C)cc1[N+](=O)[O-] [Example 2, 2,4-Dimethyl-5-nitro(N,N-dimethyl)benzenesulfonamide]"
